Reference: publication PMC9445017, “Molecular basis for polysaccharide recognition and modulated ATP hydrolysis by the O antigen ABC transporter” (Nature Communications, 2022)
pKd: −log10 of the molar value.

What was measured:
WzmWzt (full-length) = target: T1, WzmWzt (full-length) (Aquifex aeolicus, UniProt O67181); assay: NADH-coupled ATPase assay; assay type: biochemical; conditions: 1 mM ATP, 27 °C; CBD ligand, non-physiologically high concentration
T1 construct: gene abcT4; full-length wild-type transporter, Wzm2Wzt2; His-tagged (WzmWzt-His), purified as previously described; in lipid nanodiscs or DDM micelles; with O antigen ABC transporter permease Wzm (Transport permease protein)

[1] = target: T2, Wzt-CBD (also Wzt-CBM, WztC) (Aquifex aeolicus, UniProt O67181); assay: isothermal titration calorimetry; assay type: binding; conditions: 50 mM HEPES pH 8.0, 25 °C; 1:1 per CBD monomer; read-out: affinity
T2 construct: gene abcT4; N-terminal His6-TEV tag removed; E. coli C43(DE3); domain-swapped dimer
T2 sequence (O67181 entry or part of it): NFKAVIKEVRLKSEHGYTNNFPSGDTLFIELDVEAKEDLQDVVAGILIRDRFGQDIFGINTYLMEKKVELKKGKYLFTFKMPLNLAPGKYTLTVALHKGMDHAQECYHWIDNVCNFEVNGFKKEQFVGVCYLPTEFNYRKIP

T1 sequence (O67181 entry or part of it): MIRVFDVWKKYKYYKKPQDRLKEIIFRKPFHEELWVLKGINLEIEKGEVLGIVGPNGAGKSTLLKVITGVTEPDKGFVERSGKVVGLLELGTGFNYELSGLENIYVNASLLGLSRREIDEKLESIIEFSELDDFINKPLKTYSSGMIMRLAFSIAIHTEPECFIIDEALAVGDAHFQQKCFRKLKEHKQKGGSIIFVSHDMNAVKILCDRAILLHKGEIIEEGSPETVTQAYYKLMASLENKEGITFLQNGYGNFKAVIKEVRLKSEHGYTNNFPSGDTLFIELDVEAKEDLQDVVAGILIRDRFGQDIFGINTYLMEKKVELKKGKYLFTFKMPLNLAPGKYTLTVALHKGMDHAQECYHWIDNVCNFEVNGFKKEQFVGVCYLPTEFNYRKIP
T1 sequence (O67182 entry or part of it, further chain): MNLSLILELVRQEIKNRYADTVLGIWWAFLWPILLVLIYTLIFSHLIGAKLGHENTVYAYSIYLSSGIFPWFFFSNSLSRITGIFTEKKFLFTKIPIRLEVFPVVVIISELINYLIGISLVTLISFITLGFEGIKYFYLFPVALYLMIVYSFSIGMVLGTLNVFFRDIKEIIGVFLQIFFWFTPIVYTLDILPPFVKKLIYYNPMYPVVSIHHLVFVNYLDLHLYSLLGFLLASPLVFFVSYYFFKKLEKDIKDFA

- % increase in ATPase activity at high concentration (WzmWzt (full-length)): ~ 50%
- pKd [1]: ~3.63
Compound: CO[C@H]1[C@H](O)[C@@H](CO)OC(O)[C@H]1O (stereo partly drawn) [3-O-methyl-D-mannose]
